In ChEMBL document CHEMBL4033633, “N-(Aroyl)-N-(arylmethyloxy)-α-alanines: Selective inhibitors of aldose reductase” (Bioorg Med Chem, 2017):

What was measured:
[1] = molecular target: Aldo-keto reductase family 1 member B1 (Rattus norvegicus, UniProt P07943); assay: Inhibition of Sprague-Dawley rat lens ALR2 using D,L-glyceraldehyde as substrate preincubated for 10 mins followed by substrate addition measured for 5 mins by spectrophotometric method
[2] = molecular target: Aldo-keto reductase family 1 member A1 (Rattus norvegicus, UniProt P51635); assay: Inhibition of Sprague-Dawley rat kidney ALR1 using sodium D-glucuronate as substrate by spectrophotometric method
Sequence of Aldo-keto reductase family 1 member A1 (P51635 whole entry, looked up): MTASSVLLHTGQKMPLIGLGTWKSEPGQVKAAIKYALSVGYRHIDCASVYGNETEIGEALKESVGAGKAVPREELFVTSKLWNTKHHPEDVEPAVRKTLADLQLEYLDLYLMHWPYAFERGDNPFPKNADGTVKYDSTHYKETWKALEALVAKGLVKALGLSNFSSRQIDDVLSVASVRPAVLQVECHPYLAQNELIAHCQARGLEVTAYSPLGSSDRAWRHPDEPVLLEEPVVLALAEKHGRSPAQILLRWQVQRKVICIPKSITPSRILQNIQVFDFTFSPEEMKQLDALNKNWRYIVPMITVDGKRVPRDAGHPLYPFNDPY

[3] = molecular target: Aldo-keto reductase family 1 member B1 (Bos taurus, UniProt P16116); assay: Inhibition of bovine lens ALR2 using D,L-glyceraldehyde as substrate measured for 4 mins by spectrophotometric method

Compound | IC50 [1] | IC50 [2] | IC50 [3]
COc1ccc(C(=O)N(OCc2cccc(Cl)c2)C(C)C(=O)O)cc1 (stereo not drawn) | > 100 µM | > 100 µM | –
CC(C(=O)O)N(OCc1ccccc1Cl)C(=O)c1ccccc1 (stereo not drawn) | 4.88 µM | > 100 µM | –
CC(C(=O)O)N(OCc1ccc(Cl)cc1)C(=O)c1ccccc1 (stereo not drawn) | 2.69 µM | > 100 µM | –
COc1ccc(C(=O)N(CC(=O)O)OCc2ccccc2)cc1 | – | – | 3.5 µM
COc1ccc(C(=O)N(OCc2ccccc2Cl)C(C)C(=O)O)cc1 (stereo not drawn) | 2.38 µM | > 100 µM | –
CC(C(=O)O)N(OCc1ccccc1)C(=O)c1ccccc1 (stereo not drawn) | 46.7 µM | > 100 µM | –
COc1ccc(C(=O)N(OCc2ccc(Cl)cc2)C(C)C(=O)O)cc1 (stereo not drawn) | 10.1 µM | > 100 µM | –
CC(C(=O)O)N(OCc1cccc(Cl)c1)C(=O)c1ccccc1 (stereo not drawn) | 12.5 µM | > 100 µM | –
COc1ccc(C(=O)N(OCc2ccccc2)C(C)C(=O)O)cc1 (stereo not drawn) | > 100 µM | > 100 µM | –
COc1ccc(C(=O)N(CC(=O)O)OCc2ccc(Cl)cc2)cc1 | – | – | 6.3 µM
